Experimental data taken from paper PMC7912740 (Pharmaceutics, 2021).
Like-named read-outs stand apart in the source and are kept apart here.

Experiments:
Format in all cases: biochemical
UGT1A3 [1] = biological target: T1, UGT1A3 (Homo sapiens, UniProt P35503); test: chenodeoxycholic acid 24-acyl-glucuronidation in human liver microsomes, LC-MS/MS, Dixon plot; conditions: chenodeoxycholic acid 1–10 µM, 5 mM UDPGA, 10 mM MgCl2, alamethicin, pH 7.4, 30 min; competitive
T1 construct: native enzyme in ultrapooled human liver microsomes (Corning 452161), read by chenodeoxycholic acid 24-acyl-glucuronidation
T1 sequence (P35503 29-534): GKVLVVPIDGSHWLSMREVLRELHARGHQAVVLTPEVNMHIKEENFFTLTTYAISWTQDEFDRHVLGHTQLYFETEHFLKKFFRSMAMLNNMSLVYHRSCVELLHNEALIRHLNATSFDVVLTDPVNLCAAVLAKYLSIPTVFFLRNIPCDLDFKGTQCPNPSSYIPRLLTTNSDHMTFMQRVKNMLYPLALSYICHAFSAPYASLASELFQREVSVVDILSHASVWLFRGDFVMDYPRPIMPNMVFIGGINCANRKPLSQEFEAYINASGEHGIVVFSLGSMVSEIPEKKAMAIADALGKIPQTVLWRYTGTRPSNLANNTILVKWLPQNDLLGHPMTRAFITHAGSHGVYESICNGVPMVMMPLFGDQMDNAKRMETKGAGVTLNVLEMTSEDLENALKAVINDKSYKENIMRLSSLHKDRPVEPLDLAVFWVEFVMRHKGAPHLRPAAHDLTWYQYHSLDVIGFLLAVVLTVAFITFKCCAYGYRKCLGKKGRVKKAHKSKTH

UGT1A4 = biological target: T2, UGT1A4 (Homo sapiens, UniProt P22310); test: trifluoperazine N-glucuronidation in human liver microsomes, cocktail, LC-MS/MS; conditions: 0.5 µM trifluoperazine (probe cocktail set A), 5 mM UDPGA, 10 mM MgCl2, alamethicin, pH 7.4, 37 °C, 60 min; read-out: IC50 (μM) / Eudesmin
T2 construct: native enzyme in ultrapooled human liver microsomes (Corning 452161), read by trifluoperazine N-glucuronidation
T2 sequence (P22310 29-534): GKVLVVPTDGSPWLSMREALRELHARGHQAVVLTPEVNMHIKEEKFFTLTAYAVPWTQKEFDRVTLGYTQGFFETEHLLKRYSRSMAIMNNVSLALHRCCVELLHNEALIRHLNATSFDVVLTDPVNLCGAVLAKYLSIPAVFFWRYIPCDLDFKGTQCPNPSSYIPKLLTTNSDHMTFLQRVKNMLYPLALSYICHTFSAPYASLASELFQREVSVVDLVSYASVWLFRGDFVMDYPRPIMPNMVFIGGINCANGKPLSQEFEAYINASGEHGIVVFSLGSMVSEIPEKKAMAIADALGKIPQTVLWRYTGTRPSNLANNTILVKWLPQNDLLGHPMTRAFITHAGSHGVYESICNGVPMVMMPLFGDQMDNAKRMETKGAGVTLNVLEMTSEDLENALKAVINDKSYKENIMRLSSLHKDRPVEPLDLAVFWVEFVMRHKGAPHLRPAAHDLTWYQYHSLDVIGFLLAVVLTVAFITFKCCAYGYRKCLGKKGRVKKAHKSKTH

UGT1A6 = biological target: T3, UGT1A6 (Homo sapiens, UniProt P19224); test: N-acetylserotonin glucuronidation in human liver microsomes, cocktail, LC-MS/MS; conditions: 1 µM N-acetylserotonin (probe cocktail set B), 5 mM UDPGA, 10 mM MgCl2, alamethicin, pH 7.4, 37 °C, 60 min
T3 construct: native enzyme in ultrapooled human liver microsomes (Corning 452161), read by N-acetylserotonin glucuronidation
T3 sequence (P19224 27-532): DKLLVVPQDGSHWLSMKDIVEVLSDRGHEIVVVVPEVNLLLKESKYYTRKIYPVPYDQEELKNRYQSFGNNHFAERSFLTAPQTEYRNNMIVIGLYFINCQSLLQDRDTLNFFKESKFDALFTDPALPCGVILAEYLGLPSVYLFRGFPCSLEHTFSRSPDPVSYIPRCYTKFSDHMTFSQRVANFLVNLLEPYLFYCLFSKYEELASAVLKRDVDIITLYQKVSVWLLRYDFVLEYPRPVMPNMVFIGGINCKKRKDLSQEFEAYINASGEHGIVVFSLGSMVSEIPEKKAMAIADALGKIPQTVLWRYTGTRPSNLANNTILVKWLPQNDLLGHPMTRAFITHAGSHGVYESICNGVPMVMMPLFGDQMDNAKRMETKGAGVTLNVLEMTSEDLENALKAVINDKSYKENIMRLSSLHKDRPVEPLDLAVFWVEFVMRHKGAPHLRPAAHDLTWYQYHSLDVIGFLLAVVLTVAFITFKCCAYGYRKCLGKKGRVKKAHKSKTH

UGT2B7 = biological target: T4, UGT2B7 (Homo sapiens, UniProt P16662); test: naloxone 3-beta-D-glucuronidation in human liver microsomes, cocktail, LC-MS/MS; conditions: 1 µM naloxone (probe cocktail set B), 5 mM UDPGA, 10 mM MgCl2, alamethicin, pH 7.4, 37 °C, 60 min; read-out: IC50 (μM) / Eudesmin
T4 construct: native enzyme in ultrapooled human liver microsomes (Corning 452161), read by naloxone 3-glucuronidation
T4 sequence (P16662 24-529): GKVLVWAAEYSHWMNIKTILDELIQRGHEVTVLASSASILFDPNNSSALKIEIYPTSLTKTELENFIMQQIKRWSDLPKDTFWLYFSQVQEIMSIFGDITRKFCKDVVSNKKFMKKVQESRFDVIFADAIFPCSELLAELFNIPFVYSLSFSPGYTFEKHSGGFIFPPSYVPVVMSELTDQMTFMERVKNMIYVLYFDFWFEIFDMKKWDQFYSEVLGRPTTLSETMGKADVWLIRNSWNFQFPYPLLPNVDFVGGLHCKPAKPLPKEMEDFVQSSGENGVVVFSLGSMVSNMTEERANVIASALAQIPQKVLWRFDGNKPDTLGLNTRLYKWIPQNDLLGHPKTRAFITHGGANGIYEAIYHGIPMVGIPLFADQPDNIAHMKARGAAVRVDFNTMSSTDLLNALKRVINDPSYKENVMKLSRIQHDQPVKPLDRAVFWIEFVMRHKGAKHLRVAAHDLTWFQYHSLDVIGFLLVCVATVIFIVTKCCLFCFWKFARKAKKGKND

UGT1A9 = biological target: T5, UGT1A9 (Homo sapiens, UniProt O60656); test: mycophenolic acid glucuronidation in human liver microsomes, cocktail, LC-MS/MS; conditions: 0.2 µM mycophenolic acid (probe cocktail set B), 5 mM UDPGA, 10 mM MgCl2, alamethicin, pH 7.4, 37 °C, 60 min
T5 construct: native enzyme in ultrapooled human liver microsomes (Corning 452161), read by mycophenolic acid glucuronidation
T5 sequence (O60656 26-530): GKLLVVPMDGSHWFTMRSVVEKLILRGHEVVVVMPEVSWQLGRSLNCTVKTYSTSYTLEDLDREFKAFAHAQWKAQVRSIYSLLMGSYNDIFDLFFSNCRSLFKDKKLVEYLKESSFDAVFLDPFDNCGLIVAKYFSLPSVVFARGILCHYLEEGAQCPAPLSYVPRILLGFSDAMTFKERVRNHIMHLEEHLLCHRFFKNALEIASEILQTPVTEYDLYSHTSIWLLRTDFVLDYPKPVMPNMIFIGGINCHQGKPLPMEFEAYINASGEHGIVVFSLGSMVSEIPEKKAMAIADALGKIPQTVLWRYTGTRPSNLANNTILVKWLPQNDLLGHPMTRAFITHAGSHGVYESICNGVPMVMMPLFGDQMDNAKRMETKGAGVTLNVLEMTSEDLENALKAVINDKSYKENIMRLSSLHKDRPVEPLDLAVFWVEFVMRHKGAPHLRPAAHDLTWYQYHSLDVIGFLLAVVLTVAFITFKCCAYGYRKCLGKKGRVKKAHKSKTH

UGT1A1 [2] = biological target: T6, UGT1A1 (Homo sapiens, UniProt P22309); test: SN-38 glucuronidation in human liver microsomes, LC-MS/MS, Dixon plot; conditions: SN-38 0.2–2 µM, 5 mM UDPGA, 10 mM MgCl2, alamethicin, pH 7.4, 30 min; noncompetitive
T6 construct: native enzyme in ultrapooled human liver microsomes (Corning 452161), read by SN-38 glucuronidation
T6 sequence (P22309 26-533): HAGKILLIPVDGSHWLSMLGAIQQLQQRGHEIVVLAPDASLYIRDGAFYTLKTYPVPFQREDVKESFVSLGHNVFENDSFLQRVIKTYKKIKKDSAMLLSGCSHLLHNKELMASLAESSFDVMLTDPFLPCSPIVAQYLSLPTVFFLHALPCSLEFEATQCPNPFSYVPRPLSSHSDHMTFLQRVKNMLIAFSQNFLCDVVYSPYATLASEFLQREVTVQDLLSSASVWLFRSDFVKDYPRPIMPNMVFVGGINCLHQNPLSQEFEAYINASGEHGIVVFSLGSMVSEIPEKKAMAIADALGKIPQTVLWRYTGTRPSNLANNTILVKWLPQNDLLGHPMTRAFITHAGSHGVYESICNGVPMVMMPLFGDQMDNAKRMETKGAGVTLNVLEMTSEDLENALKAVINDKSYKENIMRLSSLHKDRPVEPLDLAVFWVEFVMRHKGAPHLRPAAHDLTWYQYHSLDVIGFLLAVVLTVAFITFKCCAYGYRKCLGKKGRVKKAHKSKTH

UGT1A3 [3] = biological target: T1, UGT1A3; test: chenodeoxycholic acid 24-acyl-glucuronidation in human liver microsomes, cocktail, LC-MS/MS; conditions: 2 µM chenodeoxycholic acid (probe cocktail set A), 5 mM UDPGA, 10 mM MgCl2, alamethicin, pH 7.4, 37 °C, 60 min
UGT1A1 [4] = biological target: T6, UGT1A1; test: SN-38 glucuronidation in human liver microsomes, cocktail, LC-MS/MS; conditions: 0.5 µM SN-38 (probe cocktail set A), 5 mM UDPGA, 10 mM MgCl2, alamethicin, pH 7.4, 37 °C, 60 min
[5] = read-out: IC50 (μM) / Epimagnolin A
[6] = read-out: IC50 (μM) / Yangambin

| Ki (UGT1A3 [1]) [µM] | IC50 (UGT1A4) [µM] | IC50 (UGT1A6; read-out: IC50 (μM) / Eudesmin) [µM] | IC50 (UGT2B7) [µM] | IC50 (UGT1A9; read-out: IC50 (μM) / Eudesmin) [µM] | Ki (UGT1A1 [2]) [µM] | IC50 (UGT1A3 [3]; read-out: IC50 (μM) / Eudesmin) [µM] | IC50 (UGT1A1 [4]; read-out: IC50 (μM) / Eudesmin) [µM] | IC50 (UGT1A6; [5]) [µM] | IC50 (UGT1A9; [5]) [µM] | IC50 (UGT1A3 [3]; [6]) [µM] | IC50 (UGT1A1 [4]; [6]) [µM] | Compound |
| --- | --- | --- | --- | --- | --- | --- | --- | --- | --- | --- | --- | --- |
| 39.8 | > 200 | 196 | > 200 | 173 | 25.7 | 26.6 | 24.3 |  |  |  |  | COc1ccc([C@H]2OC[C@H]3[C@@H]2CO[C@@H]3c2ccc(OC)c(OC)c2)cc1OC [Eudesmin] |
| 66.8 | > 200 |  | > 200 |  | 17.1 |  |  | > 200 | > 200 | 56.5 | 29.7 | COc1cc([C@H]2OC[C@H]3[C@@H]2CO[C@@H]3c2cc(OC)c(OC)c(OC)c2)cc(OC)c1OC [Yangambin] |
